Assays:
H520 = assay: cell viability of H520 cells, 1 and 10 uM; format: cell-based; settings: Homo sapiens, NCI-H520
Method: [Worded in the source for another cell line; this cell line is reported under the same test.] (§1) Sorafenib (Nexavar), erlotinib (Tarceva) and Paclitaxel were kindly provided by Bayer Pharmaceuticals (Pittsburgh, Pa., USA) and Roche Pharmaceuticals (Basel, Switzerland) respectively. Okadaic acid (OA) was purchased from Cayman Chemical (Ann Arbor, Mich., USA) and z-VAD-fmk was obtained from Sigma (St. Louis, Mo., USA). For in vitro studies, drugs at various concentrations were dissolved in dimethyl sulfoxide (DMSO), and added to cells in Dulbecco's modified Eagle's medium (DMEM) or Roswell Park Memorial Institute (RPMI) containing 5% fetal bovine serum (FBS).
(§2) The Sk-Hep1, PLC/PRF/5 (PLC) and Hep3B cell lines were obtained from American Type Culture Collection (ATCC; Manassas, Va., USA). The Huh-7 HCC cell line was obtained from the Health Science Research Resources Bank (HSRRB; Osaka, Japan; JCRB0403). Cells were maintained in DMEM supplemented with 10% FBS in a 37° C. humidified incubator in an atmosphere of 5% CO^2 in air.

PP2A = PP2A phosphatase activity (malachite green-phosphate assay in cell lysate); format: cell-based
Method: The protein phosphatase activity in each cell lysate was determined by measuring the generation of free phosphate from threonine phosphopeptide using the malachite green-phosphate complex assay as described by the manufacturer (Upstate Biotechnology, Lake Placid, N.Y., USA). In brief, HCC cell lysates were first prepared in a low-detergent lysis buffer. […] After incubation for 10 min at 30° C., the malachite dye was added and free phosphate was measured by optical density at 650 nm. In order to avoid variation resulting from differences in the amount of immunoprecipitation protein between samples, the phosphatase activities were normalized to the amounts of PP2A immunoprecipitated, which were detected and quantified by immunoblot analysis for each treatment group.

NCI-H226 = assay: cell viability of NCI-H226 cells, 1 and 10 uM; format: cell-based; settings: Homo sapiens
Method: [Worded in the source for another cell line; this cell line is reported under the same test.] as §1, §2

SW900 = assay: cell viability of SW900 cells, 1 and 10 uM; format: cell-based; settings: Homo sapiens
Method: [Worded in the source for another cell line; this cell line is reported under the same test.] as §1, §2

H358 = assay: cell viability of H358 cells, 1 and 10 uM; format: cell-based; settings: Homo sapiens, NCI-H358
Method: [Worded in the source for another cell line; this cell line is reported under the same test.] as §1, §2

H2170 = assay: cell viability of H2170 cells, 1 and 10 uM; format: cell-based; settings: Homo sapiens, NCI-H2170
Method: [Worded in the source for another cell line; this cell line is reported under the same test.] as §1, §2

NCI-1703 = assay: cell viability of NCI-1703 cells, 1 and 10 uM of each erlotinib derivative, and IC50; format: cell-based; settings: Homo sapiens; for IC50: cell viability
Method: [Worded in the source for another cell line; this cell line is reported under the same test.] as §1, §2

A549 = assay: cell viability of A549 cells, 1 and 10 uM; format: cell-based; settings: Homo sapiens
Method: [Worded in the source for another cell line; this cell line is reported under the same test.] as §1, §2

SET-PP2Ac binding = biological target: T1, SET-PP2Ac binding (Homo sapiens, UniProt Q01105); assay: disruption of SET-PP2Ac binding (surface plasmon resonance, co-IP)
T1 construct: His; purchased Genway (SET-His); Abnova (PP2Ac-GST) GWB-ATG319; H00005515
Method: Binding affinities of full-length SET and truncated SET to PP2Ac and the effect of the erlotinib derivatives of the present invention on disrupting SET and PP2Ac were analyzed. PP2Ac-GST recombinant protein was bound in the CMS chip pre-coated with GST-capture antibodies. Sensorgrams were generated by injecting several concentrations of the erlotinib derivatives of the present invention mixed with fixed-concentration of SET recombinant protein, or the mixture of different concentration of truncated SET proteins in a fixed-dose EMQA. PP2Ac-GST recombinant protein used for this experiment was purchased from Abnova (H00005515) and SET-His recombinant protein was obtained from Genway (GWB-ATG319).
EMQA reactivates PP2A by disrupting the binding of SET-PP2Ac. To validate the role of SET, the present invention generated Hep3B cells with ectopic expression of myc-tagged SET by transient transfection. […] With a fixed amount of PP2Ac coated on the CM chip, the present invention tested the effects of a fixed-dose of EMQA on interfering different proportions of full-length and truncated forms of SET proteins in SPR system. […] To validate the findings of this ex vivo system, the present invention generated cells with ectopic overexpression of these two truncated forms of Flag-tagged SET proteins by transient transfections.

T1 sequence (Q01105 1-277 isoform Q01105-2): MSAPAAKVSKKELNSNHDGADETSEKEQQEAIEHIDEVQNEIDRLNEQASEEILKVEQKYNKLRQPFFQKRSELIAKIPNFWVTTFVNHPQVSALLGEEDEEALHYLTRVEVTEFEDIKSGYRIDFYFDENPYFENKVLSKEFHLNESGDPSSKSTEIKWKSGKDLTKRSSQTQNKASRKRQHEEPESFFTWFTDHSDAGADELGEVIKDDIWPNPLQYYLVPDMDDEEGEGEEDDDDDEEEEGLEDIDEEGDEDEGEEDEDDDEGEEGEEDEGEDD

Compound | viability at 1 µM (H520) | viability at 10 µM (H520) | minimal concentration for PP2A activation (PP2A) | viability at 1 µM (NCI-H226) | viability at 10 µM (NCI-H226) | viability at 1 µM (SW900) | viability at 10 µM (SW900) | viability at 1 µM (H358) | viability at 10 µM (H358) | viability at 1 µM (H2170) | viability at 10 µM (H2170) | viability at 1 µM (NCI-1703) | viability at 10 µM (NCI-1703) | viability at 1 µM (A549) | viability at 10 µM (A549) | minimal concentration to disrupt SET-PP2Ac binding (SET-PP2Ac binding) | IC50 (NCI-1703)
Clc1cc(Cl)cc(Nc2nc3ccccc3nc2Cl)c1 [TD78, 3-chloro-N-(3,5-dichlorophenyl)quinoxalin-2-amine] | 108.5 ± 0.14% | 108 ± 2.23% | >200 nM | 118 ± 2.2% | 111 ± 12.9% | 102 ± 6.69% | 84.1 ± 1.12% | 98.7 ± 4.6% | 90.8 ± 7.4% | 111 ± 1.69% | 93.09 ± 0.66% | 70.6 ± 8.2% | 73.2 ± 14.1% | 77.6 ± 5.8% | 94.7 ± 11.3% | 100 to 200 nM | –
COc1ccc(Nc2nc3ccc([N+](=O)[O-])cc3nc2Nc2cccc(O)c2)cc1 [TD612, 3-(2-(4-methoxyphenylamino)-6-nitroquinoxalin-3-ylamino)phenol] | 107 ± 2.62% | 12.9 ± 1.2% | <100 nM | 69.4 ± 6.8% | 38 ± 1.4% | 105 ± 3.4% | 64.7 ± 4% | 97.3 ± 13.4% | 12.8 ± 0.4% | 107 ± 4.84% | 22.5 ± 11.8% | 82.7 ± 2.4% | 13.4 ± 0.7% | 90.6 ± 18.2% | 10.3 ± 1.2% | – | –
FC(F)(F)Oc1ccc(Nc2nc3ccccc3nc2Cl)cc1 [TD80, 3-chloro-N-(4-(trifluoromethoxy)phenyl)quinoxalin-2-amine] | 104 ± 1.3% | 92.2 ± 4.42% | >200 nM | 103 ± 10.7% | 87.8 ± 9.3% | 99.8 ± 11.8% | 88 ± 13.4% | 119 ± 3.7% | 89.4 ± 11.9% | 91.6 ± 5.42% | 87.56 ± 0.78% | 106 ± 5.2% | 52.3 ± 2.4% | 110 ± 6% | 83.4 ± 16.4% | >200 nM | –
FS(F)(F)(F)(F)c1ccc(Nc2nc3ccccc3nc2Cl)cc1 [TD81, 3-chloro-N-(4-(Pentafluorothio)phenyl)quinoxalin-2-amine] | 103.4 ± 0.14% | 72.4 ± 11.3% | >200 nM | 100 ± 4.1% | 92 ± 3.8% | 86.9 ± 7.36% | 60.2 ± 11.2% | 116 ± 5.9% | 75.5 ± 3.9% | 100 ± 6.2% | 82.7 ± 2.44% | 82.7 ± 5% | 85.8 ± 0.1% | 95.6 ± 15.9% | 69.4 ± 3.4% | >200 nM | –
Nc1ccc2nc(Nc3ccc(C(F)(F)F)cc3)c(Nc3ccc(C(F)(F)F)cc3)nc2c1 [TD607, N^2,N^3-bis(4-(trifluoromethyl)phenyl)quinoxaline-2,3,6-triamine] | 63.4 ± 53.7% | – | >200 nM | 106 ± 2.6% | 36.7 ± 2.2% | 85.9 ± 10.4% | 0.61 ± 5% | 116 ± 15.5% | 12.1 ± 0.3% | 104 ± 14.2% | 1.34 ± 0.93% | 49.7 ± 2.7% | 13.4 ± 1.6% | 100 ± 5.9% | 9.5 ± 0.6% | >200 nM | 1300 nM
COc1cccc(Nc2nc3ccc([N+](=O)[O-])cc3nc2Nc2cccc(OC)c2)c1 [TD608, N^2,N^3-bis(3-methoxyphenyl)-6-nitroquinoxaline-2,3-diamine] | 97 ± 19.8% | 1.77 ± 1.7% | >200 nM | 104 ± 2.5% | 40.6 ± 2.4% | 114 ± 2.6% | 39.8 ± 51.2% | 110 ± 44% | 31.7 ± 33.3% | 113 ± 8.63% | 4.71 ± 0.24% | 52.8 ± 4.5% | 12.7 ± 0.9% | 71.5 ± 35% | 10.3 ± 3.5% | >200 nM | –
FS(F)(F)(F)(F)c1ccc(Nc2nc3ccccc3nc2Nc2ccc(S(F)(F)(F)(F)F)cc2)cc1 [TD68, N^2,N^3-bis(4-(Pentafluorothio)phenyl)quinoxaline-2,3-diamine] | 10.1 ± 0.85% | 0.47 ± 0.11% | <50 nM | 40.2 ± 0.3% | 14.8 ± 0.3% | 3.38 ± 4.64% | 0.57 ± 0.22% | 22.4 ± 1.8% | 16.7 ± 0.8% | 69.39 ± 0.67% | 0.17 ± 0.16% | 48.6 ± 2% | 33.3 ± 7.1% | 57.3 ± 19.1% | 32.9 ± 4% | 50 nM | –
C#Cc1cccc(Nc2nc3cc([N+](=O)[O-])ccc3nc2Nc2ccc(OC)cc2)c1 [TD605, N^3-(3-ethynylphenyl)-N^2-(4-methoxyphenyl)-6-nitroquinoxaline-2,3-diamine] | 89.1 ± 6.09% | 0.78 ± 0.39% | 100 to 200 nM | 53.1 ± 1.9% | 5.5 ± 0.2% | 87.1 ± 27.2% | 2.21 ± 1.34% | 101 ± 13.6% | 113 ± 12% | 108 ± 3.88% | 5.53 ± 0.81% | 20.8 ± 0.4% | 13.8 ± 0.2% | 83.7 ± 7% | 113 ± 18.3% | 100 to 200 nM | 500 nM
O=[N+]([O-])c1ccc2nc(Nc3cccc(Br)c3)c(Nc3cccc(Br)c3)nc2c1 [TD618, N^2,N^3-bis(3-bromophenyl)-6-nitroquinoxaline-2,3-diamine] | – | – | >200 nM | 49.6 ± 9.4% | 16.7 ± 1.1% | – | – | 36.6 ± 1.6% | 20.4 ± 3.5% | – | – | 48.3 ± 4.8% | 31.9 ± 5% | 53.2 ± 6.3% | 26.9 ± 7% | >200 nM | –
FC(F)(F)Oc1ccc(Nc2nc3ccccc3nc2Nc2ccc(OC(F)(F)F)cc2)cc1 [TD65, N^2,N^3-bis(4-(trifluoromethoxy)phenyl)quinoxaline-2,3-diamine] | 18.5 ± 1.23% | 0.47 ± 0.06% | 50 to 100 nM | 46.2 ± 2.5% | 14.1 ± 1.3% | 0.73 ± 1.32% | – | 27.1 ± 1.2% | 18.3 ± 3% | 77.9 ± 3.48% | 0.26 ± 0.1% | 53.2 ± 2.3% | 26.3 ± 1% | 66.4 ± 6.9% | 27.7 ± 2% | <100 nM | –
